The values that follow come from US20260365646A1, “AKT1 MODULATORS” (Alterome Therapeutics, Inc., priority 2022, published 2026).

A value given as a limit tells only on which side of the number the result lay.

T1 sequence (P31749 whole entry E17K): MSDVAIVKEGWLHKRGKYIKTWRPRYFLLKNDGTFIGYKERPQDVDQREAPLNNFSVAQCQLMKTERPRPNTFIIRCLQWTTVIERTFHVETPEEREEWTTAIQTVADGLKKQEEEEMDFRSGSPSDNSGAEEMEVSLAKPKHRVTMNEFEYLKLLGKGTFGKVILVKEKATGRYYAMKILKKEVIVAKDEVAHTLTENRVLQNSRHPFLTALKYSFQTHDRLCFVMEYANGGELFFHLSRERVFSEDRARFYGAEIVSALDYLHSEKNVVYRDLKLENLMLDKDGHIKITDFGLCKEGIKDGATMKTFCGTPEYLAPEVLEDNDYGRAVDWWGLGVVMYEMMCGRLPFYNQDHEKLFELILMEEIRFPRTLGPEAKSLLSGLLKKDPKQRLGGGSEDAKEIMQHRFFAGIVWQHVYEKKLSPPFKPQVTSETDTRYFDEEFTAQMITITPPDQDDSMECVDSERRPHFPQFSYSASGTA

One experiment concerns the target T1, full length AKT E17K (Homo sapiens, UniProt P31749, E17K).
T1 construct: host or cells: HEK-293 (ATCC CRL-1573)
In words: NanoBRET Target Engagement (TE) Intracellular Kinase Assay. It is filed as cell-based.
Details: not given
From the text: The NanoBRET™ Target Engagement (TE) Intracellular Kinase Assays are based on the NanoBRET™ System (Promega Corporation), an energy transfer technique designed to measure molecular proximity in living cells. The NanoBRET™ TE Assays measure the apparent affinity of test compounds by competitive displacement of the NanoBRET™ tracer compound, which is a cell permeable molecule engineered to be reversibly bound to a NanoLuc® luciferase-kinase fusion expressed in cells. For compound screening, when a test compound binds to the selected kinase, the BRET signal is attenuated. […] All cells were evaluated for viability prior to transfection and optimization of the transfection was done prior to experimentation. […] Following transfection, cells were washed and resuspended in Opti-MEM. NanoBRET assays were performed in white, 384-well plates (Corning) at a density of 2×10^5 cells/well. All example compounds were prepared as concentrated stock solutions in DMSO (Sigma-Aldrich). Compounds are dissolved in DMSO to make 10 mM stock solution. […] A Labcyte ECHO 550 compound dispenser was used to facilitate compound transfer directly to cells. Cells were equilibrated for 2 hr with energy transfer probes and example compound prior to BRET measurements. […] For target engagement analysis, the energy transfer probes were added to the cells at concentrations optimized for the target in question (AKT E17K). Following compound incubation, NanoBRET NanoGlo Substrate (Promega Cat #Ni57D) and Extracellular Nanoluc Inhibitor (Promega Cat #N235C) was added according to the manufacturer's recommended protocol, and luminescence was measured on Envision Reader (Perkin Elmer) Multimode Luminometer equipped with 450 nm BPfilter (donor) and 600 nm LPfilter (acceptor), using 0.5 s integration time. Milli-BRET units (mBU) are calculated by multiplying the raw BRET values by 1000. Apparent tracer affinity values (EC50) were determined using the sigmoidal dose-response (variable slope). Competitive displacement data were then plotted and data were fit to determine the EC50 value for each example compound.
(In general: BRET reads energy transfer from a luciferase to a nearby fluorophore.)
For `COc1c(N2[C@@H](C)CN(Cc3ccc(-n4c(-c5cccnc5N)nc5ccc(-c6ccccc6)nc54)cc3)C[C@@H]2C)c(=O)c1=O` [Example 70, 3-((2S,6S)-4-(4-(2-(2-aminopyridin-3-yl)-5-phenyl-3H-imidazo[4,5-b]pyridin-3-yl)benzyl)-2,6-dimethylpiperazin-1-yl)-4-methoxycyclobut-3-ene-1,2-dione], the concentration for a half-maximal effect (EC50) was 60 to 600 nM.

Compound `CC(C)Oc1c(N2CCN(Cc3ccc(-n4c(-c5cccnc5N)nc5ccc(-c6ccccc6)nc54)cc3)CC2)c(=O)c1=O` [Example 25, 3-(4-(4-(2-(2-Aminopyridin-3-yl)-5-phenyl-3H-imidazo[4,5-b]pyridin-3-yl)benzyl)piperazin-1-yl)-4-isopropoxycyclobut-3-ene-1,2-dione] came in with an EC50 above 600 nM.

In turn, `Nc1ncccc1-c1nc2ccc(-c3ccccc3)nc2n1-c1ccc(CN2CCC(Nc3c(OC4CCCC4)c(=S)c3=S)CC2)cc1` [Example 16, 3-((1-(4-(2-(2-Aminopyridin-3-yl)-5-phenyl-3H-imidazo[4,5-b]pyridin-3-yl)benzyl)piperidin-4-yl)amino)-4-(cyclopentyloxy)cyclobut-3-ene-1,2-dithione] displayed a concentration giving a half-maximal response (EC50) of 60 to 600 nM.

The compound `Nc1ncccc1-c1nc2ccc(-c3ccccc3)nc2n1-c1ccc(CN2CCC(N3CCCOc4c3c(=O)c4=O)CC2)cc1` [Example 84, 6-(1-(4-(2-(2-aminopyridin-3-yl)-5-phenyl-3H-imidazo[4,5-b]pyridin-3-yl)benzyl)piperidin-4-yl)-2-oxa-6-azabicyclo[5.2.0]non-1(7)-ene-8,9-dione] displayed a concentration for a half-maximal effect (EC50) above 600 nM.

Compound `Nc1ncccc1-c1nc2ccc(-c3ccccc3)nc2n1-c1ccc(CN2CCC(Nc3c(O)c(=O)c3=O)CC2)cc1` [Example 18, 3-((1-(4-(2-(2-Aminopyridin-3-yl)-5-phenyl-3H-imidazo[4,5-b]pyridin-3-yl)benzyl)piperidin-4-yl)amino)-4-hydroxycyclobut-3-ene-1,2-dione] returned an EC50 above 600 nM.

In the case of `COc1c(NCc2ccc(-n3c(-c4cccnc4N)nc4cccnc43)cc2)c(=O)c1=O` [Example 2, 3-((4-(2-(2-Aminopyridin-3-yl)-3H-imidazo[4,5-b]pyridin-3-yl)benzyl)amino)-4-methoxycyclobut-3-ene-1,2-dione], the EC50 is above 600 nM.

`COc1c(N[C@H]2CCCN(Cc3ccc(-n4c(-c5cccnc5N)nc5ccc(-c6ccccc6)nc54)cc3)C2)c(=O)c1=O` [Example 29, (S)-3-((1-(4-(2-(2-Aminopyridin-3-yl)-5-phenyl-3H-imidazo[4,5-b]pyridin-3-yl)benzyl)piperidin-3-yl)amino)-4-methoxycyclobut-3-ene-1,2-dione] gave an EC50 of 60 to 600 nM.

For `COc1c(N2[C@H](C)CN(Cc3ccc(-n4c(-c5cccnc5N)nc5ccc(-c6ccccc6)nc54)cc3)C[C@H]2C)c(=O)c1=O` [Example 69, 3-((2R,6R)-4-(4-(2-(2-aminopyridin-3-yl)-5-phenyl-3H-imidazo[4,5-b]pyridin-3-yl)benzyl)-2,6-dimethylpiperazin-1-yl)-4-methoxycyclobut-3-ene-1,2-dione], the EC50 lay in the range of 60 to 600 nM.

Take `COc1c(N2CC3(CN(Cc4ccc(-n5c(-c6cccnc6N)nc6ccc(-c7ccccc7)nc65)cc4)C3)C2)c(=O)c1=O` [Example 41, 3-(6-(4-(2-(2-Aminopyridin-3-yl)-5-phenyl-3H-imidazo[4,5-b]pyridin-3-yl)benzyl)-2,6-diazaspiro[3.3]heptan-2-yl)-4-methoxycyclobut-3-ene-1,2-dione]: the concentration for a half-maximal effect (EC50) is above 600 nM.

In turn, `CC(C)Oc1c(NC2CCN(Cc3ccc(-n4c(-c5cccnc5N)nc5ccc(-c6ccccc6)nc54)cc3)CC2)c(=O)c1=O` [Example 11, 3-((1-(4-(2-(2-aminopyridin-3-yl)-5-phenyl-3H-imidazo[4,5-b]pyridin-3-yl)benzyl)piperidin-4-yl)amino)-4-isopropoxycyclobut-3-ene-1,2-dione] displayed an EC50 of 15 to 60 nM.

As to `COc1c(N2CCCC3(CCN(Cc4ccc(-n5c(-c6cccnc6N)nc6ccc(-c7ccccc7)nc65)cc4)CC3)C2)c(=O)c1=O` [Example 31, 3-(9-(4-(2-(2-Aminopyridin-3-yl)-5-phenyl-3H-imidazo[4,5-b]pyridin-3-yl)benzyl)-2,9-diazaspiro[5.5]undecan-2-yl)-4-methoxycyclobut-3-ene-1,2-dione], the concentration for a half-maximal effect (EC50) was in the range of 15 to 60 nM.

Still in this experiment, the particulars now being: read-out: NanoBRET AKT1E17K EC50; HEK-293 cells transfected with NanoLuc-AKT E17K; competitive displacement of NanoBRET tracer; 2 hr equilibration; 10-point 3-fold dilution.
As for `COc1c(N2CC[C@@]3(CCN(Cc4ccc(-n5c(-c6cccnc6N)nc6ccc(-c7ccccc7)nc65)cc4)C3)C2)c(=O)c1=O` [Example 62, (R)-3-(7-(4-(2-(2-Aminopyridin-3-yl)-5-phenyl-3H-imidazo[4,5-b]pyridin-3-yl)benzyl)-2,7-diazaspiro[4.4]nonan-2-yl)-4-methoxycyclobut-3-ene-1,2-dione], the EC50 is below 15 nM.

With `COc1c(N2CC3(CCN(Cc4ccc(-n5c(-c6cccnc6N)nc6ccc(-c7ccccc7)nc65)cc4)C3)C2)c(=O)c1=O` [Example 55, 3-(6-(4-(2-(2-Aminopyridin-3-yl)-5-phenyl-3H-imidazo[4,5-b]pyridin-3-yl)benzyl)-2,6-diazaspiro[3.4]octan-2-yl)-4-methoxycyclobut-3-ene-1,2-dione], the EC50 is below 15 nM.

In the case of `COc1c(NC2CC3(CCN(Cc4ccc(-n5c(-c6cccnc6N)nc6ccc(-c7ccccc7)nc65)cc4)CC3)C2)c(=O)c1=O` [Example 35, 3-((7-(4-(2-(2-Aminopyridin-3-yl)-5-phenyl-3H-imidazo[4,5-b]pyridin-3-yl)benzyl)-7-azaspiro[3.5]nonan-2-yl)amino)-4-methoxycyclobut-3-ene-1,2-dione], the half-maximal effective concentration (EC50) is below 15 nM.

Consider `CSc1c(NC2CCN(Cc3ccc(-n4c(-c5cccnc5N)nc5ccc(-c6ccccc6)nc54)cc3)CC2)c(=O)c1=O` [Example 45, 3-((1-(4-(2-(2-aminopyridin-3-yl)-5-phenyl-3H-imidazo[4,5-b]pyridin-3-yl)benzyl)piperidin-4-yl)amino)-4-(methylthio)cyclobut-3-ene-1,2-dione], for which the half-maximal effective concentration (EC50) is below 15 nM.

`COc1c(NN2CCN(Cc3ccc(-n4c(-c5cccnc5N)nc5ccc(-c6ccccc6)nc54)cc3)CC2)c(=O)c1=O` [Example 83, 3-((4-(4-(2-(2-aminopyridin-3-yl)-5-phenyl-3H-imidazo[4,5-b]pyridin-3-yl)benzyl)piperazin-1-yl)amino)-4-methoxycyclobut-3-ene-1,2-dione]: the EC50 is below 15 nM.

Take `CCSc1c(N(C)C2CCN(Cc3ccc(-n4c(-c5cccnc5N)nc5ccc(-c6ccccc6)nc54)cc3)CC2)c(=O)c1=O` [Example 49, 3-((1-(4-(2-(2-Aminopyridin-3-yl)-5-phenyl-3H-imidazo[4,5-b]pyridin-3-yl)benzyl)piperidin-4-yl)(methyl)amino)-4-(ethylthio)cyclobut-3-ene-1,2-dione]: the concentration for a half-maximal effect (EC50) was below 15 nM.

In the case of `COc1c(NC2CN(Cc3ccc(-n4c(-c5cccnc5N)nc5ccc(-c6ccccc6)nc54)cc3)C2)c(=O)c1=O` [Example 51, 3-((1-(4-(2-(2-Aminopyridin-3-yl)-5-phenyl-3H-imidazo[4,5-b]pyridin-3-yl)benzyl)azetidin-3-yl)amino)-4-methoxycyclobut-3-ene-1,2-dione], the concentration for a half-maximal effect (EC50) was below 15 nM.

With `COc1c(N2CCC3(CCN(Cc4ccc(-n5c(-c6cccnc6N)nc6ccc(-c7ccccc7)nc65)cc4)C3)C2)c(=O)c1=O` (stereo not shown) [Example 56, 3-(7-(4-(2-(2-Aminopyridin-3-yl)-5-phenyl-3H-imidazo[4,5-b]pyridin-3-yl)benzyl)-2,7-diazaspiro[4.4]nonan-2-yl)-4-methoxycyclobut-3-ene-1,2-dione], the EC50 is below 15 nM.

One may read the EC50 as the midpoint of the concentration-response curve.
